Data reported in PMC9069370, “Integrated Design of a Membrane‐Lytic Peptide‐Based Intravenous Nanotherapeutic Suppresses Triple‐Negative Breast Cancer” (Advanced Science, 2022).
Read-outs that look alike come from different tables or passages of the source. Square brackets hold non-standard residues; d marks the D form. Peptide text beside a SMILES is read from it.

What was measured:
human red blood cells = assay: Haemolysis (human red blood cells); assay type: cell-based; conditions: PBS, 37 °C, 1 h, one value for DHK, d‐DHK and d‐EEK together
Description: Fresh human red blood cells were obtained from Interstate Blood Bank, Inc., and thoroughly washed in PBS until the supernatant was clear. The peptide was serially diluted in PBS starting at a concentration of 200 µM. […] As a positive lysis control, 1% triton was used. […] After centrifugation, 10 µL of supernatant was transferred to 90 µL of ddH2O in a fresh 96‐well plate.

HEK293T = assay: cells; assay type: cell-based, human
U2OS = assay type: cell-based, human
HMLER = assay: cells; assay type: cell-based, human
Description: (§1) […], and MCF-10A cells were maintained in MEGM with supplements and growth factors bovine pituitary extract, hydrocortisone, human epidermal growth factor, insulin, and gentamicin/amphotericin-B.

HMLER‐shEcad = assay: cells; assay type: cell-based, human
Description: as §1

MCF‐10A = assay: cells; assay type: cell-based, human
Description: as §1

MCF‐10A mammospheres = assay: Mammosphere viability assay (TOX8); assay type: cell-based, human; conditions: for D‐enantiomer average IC90 against MCF‐10A mammospheres: one average for d‐DHK and d‐EEK together
[1] = Tryptophan fluorescent binding assay; conditions: tryptophan fluorescence; 50 µM peptide, lipid titrated 0-5000 µM; phosphate buffered saline 1X, pH 7.4; values as lipid per peptide
Summary of the method: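 Tryptophan fluorescence was used to follow binding of peptide, fixed at 50 µM, to large unilamellar vesicles of POPC:POPG (3:1 ratio) titrated into phosphate buffered saline (1X, pH 7.4). After 1 h incubation, spectra were taken on a BioTek Cytation 5 reader with excitation at 280 nm and emission at 300 to 450 nm (9 nm slits), averaging three scans.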

[2] = ANTS/DPX liposome leakage assay; conditions: for Peptide Concentration-induced 50 % ANTS/DPX leakage at pH 4.8 (L/P), 3POPC/1POPG Vesicle / Peptide Concentration-induced 50 % ANTS/DPX leakage at pH 4.8 (L/P), POPC Vesicle / Peptide Concentration-induced 50 % ANTS/DPX leakage at pH 7.4 (L/P), 3POPC/1POPG Vesicle / Peptide Concentration-induced 50 % ANTS/DPX leakage at pH 7.4 (L/P), POPC Vesicle: 0.5 mM vesicles, peptide 0-20 µM, 3 h incubation, lipid per peptide; for Peptide Concentration-induced 50 % ANTS/DPX leakage at pH 4.8 (L/P), 3POPC/1POPG Vesicle / Peptide Concentration-induced 50 % ANTS/DPX leakage at pH 4.8 (L/P), POPC Vesicle: HCl-adjusted PBS 1X pH 4.8; for Peptide Concentration-induced 50 % ANTS/DPX leakage at pH 7.4 (L/P), 3POPC/1POPG Vesicle / Peptide Concentration-induced 50 % ANTS/DPX leakage at pH 7.4 (L/P), POPC Vesicle: PBS 1X pH 7.4, high ratio = more potent
Summary of the method: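 Extruded 0.1 µm POPC or POPC/POPG (3:1) vesicles were loaded with 5 mM ANTS and 12.5 mM DPX, gel-filtered, then used at 0.5 mM lipid with titrated peptide at pH 7.4 or pH 4.8 (acidified PBS). Leakage was read at ex 350/em 510 nm after 3 h against 10% Triton maximum, expressed as lipid/peptide ratio for 50% leakage.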

[3] = test system: HMLER‐shEcad tumorspheres; assay: cells; assay type: cell-based, human
[4] = non-cancerous cells, 2D culture, MTT, 72 h incubation, library peptides n = 2, D-enantiomers and small molecules replicated six times, read-out: IC50 (µM) HEK293T
[5] = 2D culture, MTT, 72 h incubation, library peptides n = 2, D-enantiomers and small molecules replicated six times, read-out: IC50 (µM) U2OS
[6] = 2D culture, MTT, 72 h incubation, library peptides average of two independent experiments (n = 2), D-enantiomers and small molecules replicated six times, read-out: IC50 (µM) HMLER
[7] = 2D culture, MTT, 72 h incubation, library peptides average of two independent experiments (n = 2), D-enantiomers and small molecules replicated six times, read-out: IC50 (µM) HMLER-shEcad
[8] = non-cancerous cells, 2D culture, MTT, 72 h incubation, library peptides n = 2, D-enantiomers and small molecules replicated six times, read-out: IC50 (µM) MCF-10A

| Lipid Concentration-induced 50% Peptide Binding (L/P), 3POPC/1POPG Vesicle [1] | Lipid Concentration-induced 50% Peptide Binding (L/P), POPC Vesicle [1] | IC50 (U2OS; 72 h) | IC50 (HMLER‐shEcad; 72 h) | SMILES | HC50 (human red blood cells) | IC50 (HEK293T; [4]) | IC50 (U2OS; [5]) | IC50 (HMLER; [6]) | IC50 (HMLER‐shEcad; [7]) | IC50 (MCF‐10A; [8]) | D‐enantiomer average IC90 against MCF‐10A mammospheres (MCF‐10A mammospheres) | Peptide Concentration-induced 50 % ANTS/DPX leakage at pH 4.8 (L/P), 3POPC/1POPG Vesicle [2] | Peptide Concentration-induced 50 % ANTS/DPX leakage at pH 4.8 (L/P), POPC Vesicle [2] | Peptide Concentration-induced 50 % ANTS/DPX leakage at pH 7.4 (L/P), 3POPC/1POPG Vesicle [2] | Peptide Concentration-induced 50 % ANTS/DPX leakage at pH 7.4 (L/P), POPC Vesicle [2] | IC50 (HEK293T; 72 h) | also measured |
| --- | --- | --- | --- | --- | --- | --- | --- | --- | --- | --- | --- | --- | --- | --- | --- | --- | --- |
|  |  |  |  | CC(C)C[C@@H](NC(=O)CN)C(=O)N[C@H](CC(C)C)C(=O)N[C@H](CCC(=O)O)C(=O)N[C@H](CC(C)C)C(=O)N[C@H](CC(C)C)C(=O)N[C@H](CCC(=O)O)C(=O)N[C@H](CC(C)C)C(=O)N[C@H](CC(C)C)C(=O)N[C@H](CC(C)C)C(=O)N[C@H](CCCCN)C(=O)N[C@H](C)C(=O)N[C@H](C)C(=O)NCC(=O)N[C@H](Cc1c[nH]c2ccccc12)C(N)=O [d-EEK] (H-G[dL][dL][dE][dL][dL][dE][dL][dL][dL][dK][dA][dA]G[dW]-NH2) | 14 ± 5 µM | 2.82 ± 0.07 µM | 4.78 ± 0.02 µM | 0.29 ± 0.01 µM | 0.29 ± 0.01 µM | 1.07 ± 0.1 µM | 8 ± 5 µM |  |  |  |  |  | IC50 (HMLER‐shEcad; 2D culture, read-out: IC50, HMLER-shEcad cell viability, compound alone): 0.3 ± 0.1 µM; IC50 (HMLER‐shEcad; read-out: IC50, HMLER-shEcad cell viability, together with 5 µM caspase inhibitor z-VAD-FMK, 2D culture, co-incubation with 5 µM z-VAD-FMK): 0.3 ± 0.1 µM |
| 1.67 L/P | 1.50 L/P | 19.9 ± 2.65 µM | 0.7 ± 0.07 µM | CC(C)C[C@H](NC(=O)CN)C(=O)N[C@@H](CC(C)C)C(=O)N[C@@H](CC(=O)O)C(=O)N[C@@H](CC(C)C)C(=O)N[C@@H](CC(C)C)C(=O)N[C@@H](CCC(=O)O)C(=O)N[C@@H](CC(C)C)C(=O)N[C@@H](CC(C)C)C(=O)N[C@@H](CC(C)C)C(=O)N[C@@H](CCCCN)C(=O)N[C@@H](C)C(=O)N[C@@H](C)C(=O)NCC(=O)N[C@@H](Cc1c[nH]c2ccccc12)C(N)=O [DEK] (H-GLLDLLELLLKAAGW-NH2) |  |  |  |  |  |  |  | 469 L/P | 10 L/P | 773 L/P | 747 L/P | 6.8 ± 0.85 µM | change of ANTS/DPX dye leakage / liposome selectivity at pH 4.8 ([2]; pH = 4.8 compared with physiological pH, anionic versus neutral liposomes): significantly increased dye leakage from anionic liposomes; IC50 ([3]; 16 h): 12 ± 2 µM; IC90 ([3]; 16 h): 22 ± 2 µM |
|  |  |  |  | CC[C@@H](C(=O)[C@@H](C)[C@@H](O)[C@H](C)[C@@H]1O[C@@H]([C@@H](CC)C(=O)O)CC[C@@H]1C)[C@H]1O[C@]2(C=C[C@@H](O)[C@]3(CC[C@@](C)([C@H]4CC[C@](O)(CC)[C@H](C)O4)O3)O2)[C@H](C)C[C@@H]1C [Salinomycin, salinomycin, reference compound] |  |  |  |  |  |  |  |  |  |  |  |  | IC50 (HEK293T; Homo sapiens, HEK-293T, 72 h, read-out: IC50 (µM) HEK293T, non-cancerous cells, 2D culture, MTT, 72 h incubation, library peptides n = 2, D-enantiomers and small molecules replicated six times): 0.41 ± 0.1 µM; IC50 (HEK293T; Homo sapiens, HEK-293T, read-out: IC50 of salinomycin co‐administered with DHK, HEK293T, with […] DHK): 0.1 µM; IC50 (HEK293T; read-out: IC50 (µM) HEK293T, non-cancerous cells, 2D culture, MTT, 72 h incubation, library peptides n = 2, D-enantiomers and small molecules replicated six times): 0.4 ± 0.1 µM; IC50 (HMLER; Homo sapiens, 72 h, read-out: IC50 (µM) HMLER, 2D culture, MTT, 72 h incubation, library peptides average of two independent experiments (n = 2), D-enantiomers and small molecules replicated six times): 0.37 ± 0.08 µM; IC50 (HMLER; Homo sapiens, read-out: IC50 of salinomycin co‐administered with DHK, HMLER, with […] DHK): 0.05 µM; increase in anticancer efficiency (HMLER; addition of 5 µM DHK): 100 fold; IC50 (HMLER; read-out: IC50 (µM) HMLER, 2D culture, MTT, 72 h incubation, library peptides average of two independent experiments (n = 2), D-enantiomers and small molecules replicated six times): 0.4 ± 0.1 µM; cancer cell viability (HMLER; with 5 µM DHK, at the lowest dose of salinomycin): < 1%; factor by which the dosage of salinomycin required to kill cells is reduced (HMLER; with […] DHK, both HMLER and HMLER‐shEcad): 8–27; IC50 (HMLER‐shEcad; Homo sapiens, 72 h, read-out: IC50 (µM) HMLER-shEcad, 2D culture, MTT, 72 h incubation, library peptides average of two independent experiments (n = 2), D-enantiomers and small molecules replicated six times): 0.92 ± 0.28 µM; IC50 (HMLER‐shEcad; Homo sapiens, read-out: IC50 of salinomycin co‐administered with DHK, HMLER‐shEcad, with […] DHK): 0.03 µM; IC50 (HMLER‐shEcad; read-out: IC50 (µM) HMLER-shEcad, 2D culture, MTT, 72 h incubation, library peptides average of two independent experiments (n = 2), D-enantiomers and small molecules replicated six times): 0.9 ± 0.3 µM; IC50 (MCF‐10A; Homo sapiens, MCF-10A, 72 h, read-out: IC50 (µM) MCF-10A, non-cancerous cells, 2D culture, MTT, 72 h incubation, library peptides n = 2, D-enantiomers and small molecules replicated six times): 9.76 ± 2.28 µM; IC50 (MCF‐10A; Homo sapiens, MCF-10A, read-out: IC50 of salinomycin co‐administered with DHK, MCF‐10A, with […] DHK): 1.7 µM; IC50 (MCF‐10A; read-out: IC50 (µM) MCF-10A, non-cancerous cells, 2D culture, MTT, 72 h incubation, library peptides n = 2, D-enantiomers and small molecules replicated six times): 9.7 ± 2.3 µM; IC50 ([3]; Homo sapiens, 120 h, read-out: IC50 against HMLER‐shEcad tumorspheres): 22 ± 5 µM; IC90 ([3]; Homo sapiens, read-out: IC90 against HMLER‐shEcad tumorspheres): 44 ± 17 µM; IC90 against MCF‐10A mammospheres (MCF‐10A mammospheres): 34 ± 20 µM |
|  |  |  |  | CC(C)C[C@@H](NC(=O)CN)C(=O)N[C@H](CC(C)C)C(=O)N[C@H](CC(=O)O)C(=O)N[C@H](CC(C)C)C(=O)N[C@H](CC(C)C)C(=O)N[C@H](Cc1c[nH]cn1)C(=O)N[C@H](CC(C)C)C(=O)N[C@H](CC(C)C)C(=O)N[C@H](CC(C)C)C(=O)N[C@H](CCCCN)C(=O)N[C@H](C)C(=O)N[C@H](C)C(=O)NCC(=O)N[C@H](Cc1c[nH]c2ccccc12)C(N)=O [d-DHK] (H-G[dL][dL][dD][dL][dL][dH][dL][dL][dL][dK][dA][dA]G[dW]-NH2) | 14 ± 5 µM | 1.55 ± 0.37 µM | 1.24 ± 0.03 µM | 0.32 ± 0.07 µM | 0.23 ± 0.04 µM | 0.55 ± 0.06 µM | 8 ± 5 µM |  |  |  |  |  | IC50 (HMLER‐shEcad; one value printed for each pair of peptides, cell line not given, read-out: IC50 (anticancer activity)): 0.3 ± 0.1 µM |
| 0.94 L/P | 3.50 L/P | 39.8 ± 5.3 µM | 4.45 ± 0.49 µM | CC(C)C[C@H](NC(=O)CN)C(=O)N[C@@H](CC(C)C)C(=O)N[C@@H](CCCCN)C(=O)N[C@@H](CC(C)C)C(=O)N[C@@H](CC(C)C)C(=O)N[C@@H](Cc1c[nH]cn1)C(=O)N[C@@H](CC(C)C)C(=O)N[C@@H](CC(C)C)C(=O)N[C@@H](CC(C)C)C(=O)N[C@@H](Cc1c[nH]cn1)C(=O)N[C@@H](C)C(=O)N[C@@H](C)C(=O)NCC(=O)N[C@@H](Cc1c[nH]c2ccccc12)C(N)=O [KHH] (H-GLLKLLHLLLHAAGW-NH2) |  |  |  |  |  |  |  | 48 L/P | 227 L/P | 329 L/P | 1153 L/P | 7.75 ± 0.78 µM | IC50 (HMLER; 72 h): 5.2 ± 0.71 µM; IC50 (MCF‐10A; 72 h): 10.3 ± 0.49 µM |
